By pEC50 is commonly meant the negative decadic logarithm of the EC50, by convention in mol/L. Broadly, the pIC50 is the negative decadic logarithm of the IC50, by convention in mol/L. In general, IC50 refers to the concentration needed to halve the response being measured.

The results in this text go back to US8987195B2 (priority 2012, dated 2015).

pEC50, pIC50: −log10 of the molar value. Like-named read-outs stand apart in the source and are kept apart here.

One experiment deals with HCV genotype 1b replicon. Nature of the experiment: HCV replicon assay, genotype 1b replicon EC50. The class given is cell-based, Hepatitis C virus. Particulars: Hepatitis C virus, read-out: EC50 [gt-1b]. The essentials: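 Cells harbouring a stable replicon are grown under G418 selection, then plated with test compound in G418-free medium for 24-48 hours. After washing and lysis, RNA or luciferase signal is measured and expressed as percent of DMSO control to give EC50.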
For orientation: A replicon is a self-replicating genome or part of one, used to study replication in cells.

Experiment [1] has as its target HCV NS3/4A protease genotype 1b (Hepatitis C virus genotype 1b, UniProt P26663). The experiment in a line: HCV NS3/4A protease time-resolved fluorescence (TRF) assay, Ki against genotype 1b. The class given is biochemical. The following applies: for pIC50: IC50 [gt-1b], NS3/4A protease TRF assay, genotype 1b enzyme 0.2 nM; for IC50: IC50 [gt-1b] (nM), NS3/4A genotype 1b, enzyme 0.2 nM. The essentials: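 First, protease (genotype 1b 0.2 nM, A156T 0.4 nM, genotype 3a 0.025 nM) is preincubated 30 min with inhibitor. Next, 25 nM TRF substrate starts the reaction, run 2.5 h at room temperature. Finally, europium fluorescence is read and Ki calculated from IC50.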

Setting [2] is: HCV replicon, genotype 1b, K+ salt.

For the compound `Cc1ccc2nc(C(F)(F)F)c3c(c2c1)CC[C@]1(C[C@H]2C(=O)N[C@]4(C(=O)NS(=O)(=O)C5(C)CC5)C[C@H]4/C=C\CCCCC[C@H](NC(=O)OCCN4CCCCC4)C(=O)N2C1)O3` [Example 417, 2-(piperidin-1-yl)ethyl [(2R,6S,12Z,13aS,14aR,16aS)-9′-methyl-14a-{[(1-methylcyclopropyl)sulfonyl]carbamoyl}-5,16-dioxo-5′-(trifluoromethyl)-1,1′,2′,5,6,7,8,9,10,11,13a,14,14a,15,16,16a-hexadecahydrospiro[cyclopropa[e]pyrrolo[1,2-a][1,4]diazacyclopentadecine-2,3′-pyrano[2,3-c]quinolin]-6-yl]carbamate], in the experiment with HCV genotype 1b replicon (HCV replicon, genotype 1b), the pEC50 is 7.34. The same compound gave a pIC50 in experiment [1] of 10.03.

`COc1ccc2nc(C)c3c(c2c1)CC[C@]1(C[C@H]2C(=O)N[C@]4(C(=O)NS(=O)(=O)C5(C)CC5)C[C@H]4/C=C\CCCCC[C@H](NC(=O)OC4CCCCC4)C(=O)N2C1)O3` [Example 206, cyclohexyl [(2R,6S,12Z,13aS,14aR,16aS)-9′-methoxy-5′-methyl-14a-{[(1-methylcyclopropyl)sulfonyl]carbamoyl}-5,16-dioxo-1,1′,2′,5,6,7,8,9,10,11,13a,14,14a,15,16,16a-hexadecahydrospiro[cyclopropa[e]pyrrolo[1,2-a][1,4]diazacyclopentadecine-2,3′-pyrano[2,3-c]quinolin]-6-yl]carbamate]: the pEC50 in the experiment on HCV genotype 1b replicon (genotype 1b replicon, K+ salt) is 9.09. For the same compound, the IC50 in experiment [1] (K+ salt) is 0.005 nM.

Consider `COc1ccc2nc(C3CC3)c3c(c2c1)C(F)(F)C[C@]1(C[C@H]2C(=O)N[C@]4(C(=O)NS(=O)(=O)C5(C)CC5)C[C@H]4/C=C\CCCCC[C@H](NC(=O)OCC(C)C)C(=O)N2C1)O3` [Example 248, 2-methylpropyl [(2S,6S,12Z,13aS,14aR,16aS)-5′-cyclopropyl-1′,1′-difluoro-9′-methoxy-14a-{[(1-methylcyclopropyl)sulfonyl]carbamoyl}-5,16-dioxo-1,1′,2′,5,6,7,8,9,10,11,13a,14,14a,15,16,16a-hexadecahydrospiro[cyclopropa[e]pyrrolo[1,2-a][1,4]diazacyclopentadecine-2,3′-pyrano[2,3-c]quinolin]-6-yl]carbamate], for which the pEC50 in the experiment with HCV genotype 1b replicon (genotype 1b replicon, K+ salt) is 7.83. The IC50 in experiment [1] (K+ salt) was found to be 0.026 nM.

As for `[2H]C([2H])(F)Oc1ccc2nc(C)c3c(c2c1)[C@H](F)C[C@]1(C[C@H]2C(=O)N[C@]4(C(=O)NS(=O)(=O)C5(C)CC5)C[C@H]4/C=C\CCCCC[C@H](NC(=O)OCC(C)(C)C)C(=O)N2C1)O3` [Example 403, 2,2-dimethylpropyl [(1′R,2S,6S,12Z,13aS,14aR,16aS)-1′-fluoro-9′-{[fluoro(^2H2)methyl]oxy}-5′-methyl-14a-{[(1-methylcyclopropyl)sulfonyl]carbamoyl}-5,16-dioxo-1,1′,2′,5,6,7,8,9,10,11,13a,14,14a,15,16,16a-hexadecahydrospiro[cyclopropa[e]pyrrolo[1,2-a][1,4]diazacyclopentadecine-2,3′-pyrano[2,3-c]quinolin]-6-yl]carbamate], the pEC50 with HCV genotype 1b replicon (setting [2]) is 8.72. Also, the pIC50 in experiment [1] (K+ salt) is 10.89.

For the compound `Cc1ccc2nc(C(F)(F)F)c3c(c2c1)CC[C@]1(C[C@H]2C(=O)N[C@]4(C(=O)NS(=O)(=O)C5(C)CC5)C[C@H]4/C=C\CCCCC[C@H](NC(=O)OCCCN4CCOCC4)C(=O)N2C1)O3` [Example 424, 3-(morpholin-4-yl)propyl [(2R,6S,12Z,13aS,14aR,16aS)-9′-methyl-14a-{[(1-methylcyclopropyl)sulfonyl]carbamoyl}-5,16-dioxo-5′-(trifluoromethyl)-1,1′,2′,5,6,7,8,9,10,11,13a,14,14a,15,16,16a-hexadecahydrospiro[cyclopropa[e]pyrrolo[1,2-a][1,4]diazacyclopentadecine-2,3′-pyrano[2,3-c]quinolin]-6-yl]carbamate], in the experiment with HCV genotype 1b replicon (HCV replicon, genotype 1b), the pEC50 was 7.82. In addition, in experiment [1], the pIC50 is 10.48.

With `COc1ccc2nc(C(F)F)c3c(c2c1)CC[C@]1(C[C@H]2C(=O)N[C@]4(C(=O)NS(=O)(=O)C5(C)CC5)C[C@H]4/C=C\CCCCC[C@H](NC(=O)O[C@@H](C)C(C)C)C(=O)N2C1)O3` [Example 442, (2S)-3-methylbutan-2-yl [(2R,6S,12Z,13aS,14aR,16aS)-5′-(difluoromethyl)-9′-methoxy-14a-{[(1-methylcyclopropyl)sulfonyl]carbamoyl}-5,16-dioxo-1,1′,2′,5,6,7,8,9,10,11,13a,14,14a,15,16,16a-hexadecahydrospiro[cyclopropa[e]pyrrolo[1,2-a][1,4]diazacyclopentadecine-2,3′-pyrano[2,3-c]quinolin]-6-yl]carbamate], the pEC50 in the experiment with HCV genotype 1b replicon (setting [2]) is 8.78. The pIC50 in experiment [1] (K+ salt) was 10.62.

Regarding `Cc1nc2ccc(OC(F)F)cc2c2c1O[C@]1(CC2)C[C@H]2C(=O)N[C@]3(C(=O)NS(=O)(=O)C4(C)CC4)C[C@H]3/C=C\CCCCC[C@H](NC(=O)OCC(C)(C)C)C(=O)N2C1` [Example 280, 2,2-dimethylpropyl [(2R,6S,12Z,13aS,14aR,16aS)-9′-(difluoromethoxy)-5′-methyl-14a-{[(1-methylcyclopropyl)sulfonyl]carbamoyl}-5,16-dioxo-1,1′,2′,5,6,7,8,9,10,11,13a,14,14a,15,16,16a-hexadecahydrospiro[cyclopropa[e]pyrrolo[1,2-a][1,4]diazacyclopentadecine-2,3′-pyrano[2,3-c]quinolin]-6-yl]carbamate], the pEC50 with HCV genotype 1b replicon (genotype 1b replicon) was 8.55. In experiment [1], this compound came in with an IC50 of 0.005 nM.

For `COc1ccc2nc(C)c3c(c2n1)[C@H](F)C[C@]1(C[C@H]2C(=O)N[C@]4(C(=O)NS(=O)(=O)C5(C)CC5)C[C@H]4/C=C\CCCCC[C@H](NC(=O)OC(C)(C)C(F)(F)F)C(=O)N2C1)O3` [Example 380, 1,1,1-trifluoro-2-methylpropan-2-yl [(2S,6S,10′R,12Z,13aS,14aR,16aS)-10′-fluoro-2′-methoxy-6′-methyl-14a-{[(1-methylcyclopropyl)sulfonyl]carbamoyl}-5,16-dioxo-1,5,6,7,8,9,9′,10,10′,11,13a,14,14a,15,16,16a-hexadecahydrospiro[cyclopropa[e]pyrrolo[1,2-a][1,4]diazacyclopentadecine-2,8′-pyrano[2,3-c][1,5]naphthyridin]-6-yl]carbamate], the pEC50 with HCV genotype 1b replicon (setting [2]) was 8.25. For the same compound, the pIC50 in experiment [1] (K+ salt) is 10.68.

As to `Cc1nc2ccc(Cl)cc2c2c1O[C@]1(CC2)C[C@H]2C(=O)N[C@]3(C(=O)NS(=O)(=O)C4(C)CC4)C[C@H]3/C=C\CCCCC[C@H](NC(=O)OC3CCCCC3)C(=O)N2C1` [Example 190, cyclohexyl [(2R,6S,12Z,13aS,14aR,16aS)-9′-chloro-5′-methyl-14a-{[(1-methylcyclopropyl)sulfonyl]carbamoyl}-5,16-dioxo-1,1′,2′,5,6,7,8,9,10,11,13a,14,14a,15,16,16a-hexadecahydrospiro[cyclopropa[e]pyrrolo[1,2-a][1,4]diazacyclopentadecine-2,3′-pyrano[2,3-c]quinolin]-6-yl]carbamate], the pEC50 in the experiment with HCV genotype 1b replicon (genotype 1b replicon, K+ salt) was 7.88. Besides, the IC50 in experiment [1] (K+ salt) was determined as 0.009 nM.

With `CC(C)(C)OC(=O)N[C@H]1CCCCC/C=C\[C@@H]2C[C@@]2(C(=O)NS(=O)(=O)C2(C)CC2)NC(=O)[C@@H]2C[C@]3(CCc4c(c(C(F)(F)F)nc5ccc(OCF)cc45)O3)CN2C1=O` [Example 458, tert-butyl [(2R,6S,12Z,13aS,14aR,16aS)-9′-(fluoromethoxy)-14a-{[(1-methylcyclopropyl)sulfonyl]carbamoyl}-5,16-dioxo-5′-(trifluoromethyl)-1,1′,2′,5,6,7,8,9,10,11,13a,14,14a,15,16,16a-hexadecahydrospiro[cyclopropa[e]pyrrolo[1,2-a][1,4]diazacyclopentadecine-2,3′-pyrano[2,3-c]quinolin]-6-yl]carbamate], the pEC50 in the experiment on HCV genotype 1b replicon (HCV replicon, genotype 1b) was 8.85. The same compound had a pIC50 in experiment [1] of 10.82.

For `COc1ccc2nc(C(C)C)c3c(c2c1)C(F)(F)C[C@]1(C[C@H]2C(=O)N[C@]4(C(=O)NS(=O)(=O)C5(C)CC5)C[C@H]4/C=C\CCCCC[C@H](NC(=O)OC(C)(C)CCS(=O)(=O)C(C)C)C(=O)N2C1)O3` [Example 281, 2-methyl-4-(propan-2-ylsulfonyl)butan-2-yl [(2S,6S,12Z,13aS,14aR,16aS)-1′,1′-difluoro-9′-methoxy-14a-{[(1-methylcyclopropyl)sulfonyl]carbamoyl}-5,16-dioxo-5′-(propan-2-yl)-1,1′,2′,5,6,7,8,9,10,11,13a,14,14a,15,16,16a-hexadecahydrospiro[cyclopropa[e]pyrrolo[1,2-a][1,4]diazacyclopentadecine-2,3′-pyrano[2,3-c]quinolin]-6-yl]carbamate], the pEC50 with HCV genotype 1b replicon (genotype 1b replicon) is 7.97. For the same compound, the half-inhibitory concentration (IC50) in experiment [1] is 0.06 nM.

As for `Cc1nc2ccccc2c2c1O[C@]1(CC2)C[C@H]2C(=O)N[C@]3(C(=O)NS(=O)(=O)C4(C)CC4)C[C@H]3/C=C\CCCCC[C@H](Nc3cccc(F)c3)C(=O)N2C1` [Example 345, (2R,6S,12Z,13aS,14aR,16aS)-6-[(3-fluorophenyl)amino]-5′-methyl-N-[(1-methylcyclopropyl)sulfonyl]-5,16-dioxo-1,1′,2′,6,7,8,9,10,11,13a,14,15,16,16a-tetradecahydrospiro[cyclopropa[e]pyrrolo[1,2-a][1,4]diazacyclopentadecine-2,3′-pyrano[2,3-c]quinoline]-14a(5H)-carboxamide], the pEC50 with HCV genotype 1b replicon (genotype 1b replicon) was 8.18. In experiment [1], this compound came in with an IC50 of 0.428 nM.
